The source of these data is patent US8557864B2, “Agent having neurotrophic factor-like activity” (Nagoya Industrial Science Research Institute, priority 2007, dated 2013).

Common to all, as to assay type: in vivo
Experiment [1] has as its system mice under chronic mild stress. The experiment in a line: Tail suspension test, compound given at the same time as stress. To be noted: 20, 100 and 500 μg/kg intraperitoneally once per day with stress; stressed 3 week- and 1 week-administration groups. The protocol:
Mice under established chronic mild stress (hereinafter referred to as “stress”) were used for a depression and anxiety disorder-like model animal. Stress was applied as follows. 7-week-old male ddY strain mice fed in one cage for 4 mice were used and first subjected to forced swimming for 15 minutes. Then, the mice were fed in a sloped cage for 2 days, and then rested in a normal cage for 1 day. Then, the mice were fed in a dirt cage moisturized with 200 mL of water for 1 day and then rested in a normal cage for 1 day. Then, the mice were fed in a rotational cage that rotated at 180 rpm for 1 day, and then rested in a normal cage for 1 day. […] For 0 μg/kg administration examples of controls, a phosphoric acid buffer containing 0.1% DMSO (controls were expressed as “PBS” or “0 μg/kg” in the figure shown below) was administered in an amount of 0.25 mL to each of a stressed example and a non-stressed example. […]
A site of 1 cm from the tip of the tail of a mouse was grasped by a hand, being apart from a floor from 10 cm, and an immobility time in suspension for 6 minutes was measured for 2 hours. Since the immobility time prolongs when the mouse has a depressive symptom (condition), a level of the depressive symptom (condition) can be evaluated from the length of the immobility time. […]

Experiment [2] is described as follows: Measurement of weights of mice before and after stress. The following applies: 3 weeks with stress. The text has this:
A weight of a mouse before stress was subtracted from the weight of the mouse immediately after administering the compound 8 as well as stress for 3 weeks to obtain a weight gap (g).

Experiment [3] in a line: Measurement of weights of mice after completion of stress. The following applies: 500 μg/kg for 1 week after completion of stress. The text has this: A weight of a mouse before stress was subtracted from of the weight of the mouse immediately after completion of stress for 3 weeks without administering the compound 8 and the weight of the mouse after administering the compound 8 for 1 week after completion of stress, respectively, to obtain weight gaps (g). FIGS. 29 and 30 show the results. Although doses are described in FIG. 29, the compound 8 was not administered as described above, and mice corresponding to each of the administration groups administered with the compound 8 for 1 week after completion of stress are only shown.

The subject of experiment [4] is mice under chronic mild stress. The experiment can be described thus: Elevated plus maze test after completion of stress. The protocol:
In this test, an anxiety level can be evaluated from the time for being the open arm, and a behavior amount can be evaluated from the number of times of entering the closed arm. From the evaluations, when a mouse has an anxiety symptom (condition), the time for being in the open arm […], and thus, a level of the anxiety symptom (condition) can be evaluated from the length of the time. FIGS. 8 to 11 show the results.
Example 2 is a behavior test in which the compound 8 was administered to a mouse as well as stress was applied and a suppression effect of the compound 8 on depressive and anxiety symptoms of the mouse was examined. On the other hand, the present example is a behavior test in which only stress was applied for 3 weeks without administering the compound 8 and stress was completed and a therapeutic effect of the compound 8 on depressive and anxiety symptoms of a mouse after removing stress was examined. Stress was applied to a mouse in the same manner as in Example 2. For behavior tests of mice, the burying the glass-marbles test, the tail suspension test and the elevated plus maze test were performed respectively in the same manners as in Example 2 on groups without administering the compound 8 immediately after completion of stress for 3 weeks and groups without administering the compound 8 with no stress from the start (hereinafter referred to as “non-administration groups after completion of stress”); a group administered with the compound 8 for 1 week after completion of stress and a group administered with the compound 8 for 1 week in the same manner as the former group with no stress from the start (hereinafter referred to as “1 week-administration groups after completion of stress”); and a group administered with the compound 8 for 2 weeks after completion of stress and a group administered with the compound 8 for 2 weeks in the same manner as the former group with no stress from the start (hereinafter referred to as “2 week-administration groups after completion of stress”). […]

Regarding `CCCCCCC/C=C/C(=O)OCC` [Compound 8, trans-2-decenoic acid ethyl ester], the “immobility time, stressed vs non-stressed example” value in experiment [1] was “no significant difference”. Further, the “weight gap, stressed vs non-stressed example” value in experiment [2] (500 μg/kg administration group) and in experiment [3] was “no significant difference” in each case. In addition, the “ratio of weight decrease in stressed examples compared to control (PBS)” value in experiment [2] (compound 8 administration groups) is listed as “less”. Further, the “time for being in open arm, stressed vs non-stressed example” value in experiment [4] (500 μg/kg, 1 week-administration groups after completion of stress) is “no significant difference”; in experiment [4] (all administration examples, 2 week-administration group after completion of stress), “no significant difference”. For the same compound, in experiment [4] (1 week- and 2 week-administration groups after completion of stress, vs controls (0 μg/kg) and stressed vs non-stressed), the “number of times of entering closed arm (behavior amount)” value is “no significant difference”.
